The source of these data is patent publication US7232570B2, “ERAAP modulators regulate immune responses” (Regents of the University of California, priority 2002, dated 2007).

Experiment [1] has as its system Sprague-Dawley rats. The experiment is described as follows: Phenotypic and functional indicia of immunosuppression in treated rats. Format: in vivo.
Experiment [2] deals with human source ERAAP (Homo sapiens, UniProt Q9NZ08). As to the kind of experiment: ERAAP modulation/selectivity screen against a panel of other aminopeptidases. In kind it is biochemical. The following applies: preferential inhibition of ERAAP compared with a panel of other aminopeptidases. The text has this: The targeted ERAAP is a well-known, naturally-occurring aminopeptidase, which has been biochemically characterized and cloned in a wide variety of animal species, including mice, rats and humans. […] Note that the same enzyme has been called “A-LAP” (adipocyte-derived leucine aminopeptidase) by others (e.g. Hattori et al., supra).
Chain of human source ERAAP (Q9NZ08 whole entry): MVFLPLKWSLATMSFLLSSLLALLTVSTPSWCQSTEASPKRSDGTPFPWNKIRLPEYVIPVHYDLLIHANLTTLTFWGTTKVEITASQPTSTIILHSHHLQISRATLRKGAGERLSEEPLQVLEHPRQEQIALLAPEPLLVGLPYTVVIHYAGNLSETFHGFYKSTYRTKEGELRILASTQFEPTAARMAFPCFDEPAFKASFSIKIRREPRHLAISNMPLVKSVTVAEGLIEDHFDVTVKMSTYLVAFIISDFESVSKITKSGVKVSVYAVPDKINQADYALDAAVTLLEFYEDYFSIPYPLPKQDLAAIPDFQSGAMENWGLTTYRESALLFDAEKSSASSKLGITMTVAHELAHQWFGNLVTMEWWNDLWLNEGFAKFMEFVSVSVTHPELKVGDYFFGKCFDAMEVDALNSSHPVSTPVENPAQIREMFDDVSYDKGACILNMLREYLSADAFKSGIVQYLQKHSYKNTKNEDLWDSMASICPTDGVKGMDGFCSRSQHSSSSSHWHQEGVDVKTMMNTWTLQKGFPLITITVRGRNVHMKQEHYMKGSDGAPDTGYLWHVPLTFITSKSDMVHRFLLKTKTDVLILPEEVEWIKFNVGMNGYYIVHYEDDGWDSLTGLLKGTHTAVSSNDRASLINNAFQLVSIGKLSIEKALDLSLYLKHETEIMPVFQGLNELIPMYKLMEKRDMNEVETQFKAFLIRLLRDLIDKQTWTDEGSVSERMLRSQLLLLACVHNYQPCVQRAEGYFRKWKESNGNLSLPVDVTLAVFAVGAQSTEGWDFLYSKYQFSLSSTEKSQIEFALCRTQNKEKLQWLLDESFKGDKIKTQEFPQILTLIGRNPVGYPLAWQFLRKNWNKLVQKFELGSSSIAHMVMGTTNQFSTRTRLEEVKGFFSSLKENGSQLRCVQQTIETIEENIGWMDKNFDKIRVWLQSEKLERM
Protocols for delivering the inhibitor and effective dosages are known in the art and/or readily determined empirically by those skilled in the art guided by the selected inhibitor and the present disclosure. […] For example, the well-characterized structural interaction between aminothiol inhibitors of aminopeptidases (e.g. Bienvenue et al., J Inorgan Biochem 2000, 78, 43-54) were exploited to select ERAAP selective aminothiol-type inhibitors. In this manner, we screened panels of compounds and identified a number of ERAAP-selective aminothiol inhibitors, including leucine thiol and lysinethiol. ERAAP modulation assays may be performed by any convenient protocol, including those described by us in Serwold et al. (2001, supra), those of Hattori et al. (2000, supra), etc. […] Alternative aminopeptidase inhibitor pharmacophores for ERAAP selectivity and method compatibility screens include L-bis (1-thio-2-amino-4-methylpentane) dihydrochloride (TAMP) and L-bis (1-thio-2-amino-3-phenylpropane) dihydrochloride (TAPP) (see, e.g. Weiss et al., Res Comm Chem Path Pharmacol 1988, 62, 113-2) and alpha-thiolbestatins (e.g. Ocain et al., J Med Chem 1988 November;31(11):2193-9).

Experiment [3] has as its target T1, predominant aminopeptidase activity present in the ER (ERAAP) (Mus musculus, UniProt Q9EQH2).
T1 construct: Microsomes from liver and spleens of mice were solubilized in detergent; from tissue; host or cells: mouse liver and spleen microsomes
T1 sequence (Q9EQH2 1-930): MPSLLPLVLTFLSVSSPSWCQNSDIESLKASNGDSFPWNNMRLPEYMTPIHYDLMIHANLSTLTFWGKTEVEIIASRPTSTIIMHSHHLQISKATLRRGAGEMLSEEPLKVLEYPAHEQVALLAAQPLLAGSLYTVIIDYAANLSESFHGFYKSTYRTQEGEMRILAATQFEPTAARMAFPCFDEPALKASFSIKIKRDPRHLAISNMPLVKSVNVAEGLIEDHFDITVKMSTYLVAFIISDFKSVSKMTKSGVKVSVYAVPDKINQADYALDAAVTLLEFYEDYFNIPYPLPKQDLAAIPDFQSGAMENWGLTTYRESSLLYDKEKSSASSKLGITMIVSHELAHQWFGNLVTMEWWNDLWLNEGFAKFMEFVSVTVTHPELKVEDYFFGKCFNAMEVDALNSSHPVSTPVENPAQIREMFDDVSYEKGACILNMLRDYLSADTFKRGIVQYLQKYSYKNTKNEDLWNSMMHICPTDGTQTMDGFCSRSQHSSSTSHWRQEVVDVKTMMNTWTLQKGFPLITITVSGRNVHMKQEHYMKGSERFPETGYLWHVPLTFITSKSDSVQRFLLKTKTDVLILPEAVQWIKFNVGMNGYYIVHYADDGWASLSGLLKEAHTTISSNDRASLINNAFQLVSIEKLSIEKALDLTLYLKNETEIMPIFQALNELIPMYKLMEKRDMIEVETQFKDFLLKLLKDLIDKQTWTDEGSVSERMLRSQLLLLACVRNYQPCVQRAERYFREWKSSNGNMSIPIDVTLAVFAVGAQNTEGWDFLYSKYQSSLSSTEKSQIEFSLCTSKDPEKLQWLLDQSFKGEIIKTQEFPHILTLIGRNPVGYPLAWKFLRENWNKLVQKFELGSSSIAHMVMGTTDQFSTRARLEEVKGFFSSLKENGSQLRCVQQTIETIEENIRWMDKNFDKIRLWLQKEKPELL
As to the kind of experiment: Aminopeptidase activity of solubilized microsomes, colorimetric substrate leucine-p-nitroanilide. Format: biochemical, mice. The settings on record: ion exchange chromatography of solubilized microsomes from mouse liver and spleen. From the text:
To identify this protease, we biochemically purified the predominant aminopeptidase activity present in the ER. Microsomes from liver and spleens of mice were solubilized in detergent and the aminopeptidase activity was monitored by the colorimetric substrate leucine-p-nitroanilide (9). […] This activity was precipitated from solubilized microsomes by ammonium sulfate, resolublized and fractionated by size exclusion, ion exchange and hydrophobic interaction chromatographies. The highly enriched fractions from the final purification step contained a major band of approximately 100 kD on a coommassie blue stained SDS-PAGE gel. This band was subjected to in-gel trypsin digestion and the peptides were analyzed by MALDI-TOF mass spectrometry; the resulting tryptic peptide fingerprint was used to search the NCBI database (10). In two independent experiments 25 masses matched the predicted output of trypsin digested murine adipocyte-derived leucine aminopeptidase (Genbank Accession # AF227511). This assignment was further confirmed with the amino acid sequences of four peptides determined by high energy CID MS-MS analysis (11). This 930 amino acid murine aminopeptidase and its human and rat homologues are known by a variety of different names (12). […]

In experiment [4] the test system is antigen presenting cells (APC). The experiment is described as follows: APC assays with peripheral blood leukocytes from aminothiol-treated rats. The settings on record: peripheral blood leukocytes of treated rats as APC for T cells specific for K^b or D^b presented peptides. In kind it is in vivo, Sprague-Dawley rats.
Experiment [5] has as its system ERAAP. The experiment is described as follows: ERAAP expression in cultured fibroblasts treated with interferon gamma. Format: cell-based. The protocol:
MHC I molecules are expressed by virtually all tissues. To determine whether ERAAP expression correlated with that of MHC I, seven different mouse tissues were analyzed by western blot for expression of ERAAP, MHC I and the housekeeping proteins actin and gp96 as controls. ERAAP was detected in all tissues analyzed but its expression was highest in the liver, lung, spleen and thymus, the same tissues which also expressed the highest levels of MHC I molecules. Furthermore, the expression of ERAAP was increased approximately 10-fold by treatment of cultured fibroblasts with the inflammatory cytokine interferon gamma, which also upregulates many other key components in the antigen processing pathway (17).

On to `CC(C)C[C@H](N)CS` [leucinethiol], for which, in experiment [1], the “spleen and thymus volume” value is “reduced”. The graft-host response result in experiment [1] (e.g. skin graft assays) was “reduced”. Moreover, the ERAAP selectivity result in experiment [2] is recorded as “ERAAP-selective”. Further, in experiment [3], the “predominant aminopeptidase activity peak” value was “blocked”. Moreover, in experiment [4], the APC function result is on record as “pronounced inhibition”.
As for `CC[C@H](C)[C@H](N)CS` [isoleucinethiol], the ERAAP selectivity entry in experiment [2] is “ERAAP-selective”.
Regarding interferon gamma: inflammatory cytokine, the “increase of ERAAP expression” value in experiment [5] is on record as “approximately 10 fold”.
As to `NCCCC[C@H](N)CS` [lysinethiol], the ERAAP selectivity result in experiment [2] is reported as “ERAAP-selective”.
